Source: patent US4430435A (priority 1980, dated 1984)
“And” between values parts separate entries of the source, which are not always exact repeats. Equal entries are not always repeated.

Columns and labels:
calf caudate [1] = target: T1, calf caudate (Bos taurus, UniProt P20288); type: binding
T1 construct: homogenised calf caudate (8 mg/ml); from tissue; host or cells: calf caudate, homogenised

β-Adrenergic Receptors = type: binding, rat
calf caudate [2] = target: T1, calf caudate; assay: Recovery of haloperidol added to drug-free serum, measured by the 3H-spiperone/calf caudate radioreceptor assay; type: binding; conditions: in the presence of TBEP
[3] = Radioreceptor assay for tricyclic antidepressant drugs: binding of 3H-desipramine to talc in the presence of serum or buffer, with blocking agent

T1 sequence (P20288 whole entry): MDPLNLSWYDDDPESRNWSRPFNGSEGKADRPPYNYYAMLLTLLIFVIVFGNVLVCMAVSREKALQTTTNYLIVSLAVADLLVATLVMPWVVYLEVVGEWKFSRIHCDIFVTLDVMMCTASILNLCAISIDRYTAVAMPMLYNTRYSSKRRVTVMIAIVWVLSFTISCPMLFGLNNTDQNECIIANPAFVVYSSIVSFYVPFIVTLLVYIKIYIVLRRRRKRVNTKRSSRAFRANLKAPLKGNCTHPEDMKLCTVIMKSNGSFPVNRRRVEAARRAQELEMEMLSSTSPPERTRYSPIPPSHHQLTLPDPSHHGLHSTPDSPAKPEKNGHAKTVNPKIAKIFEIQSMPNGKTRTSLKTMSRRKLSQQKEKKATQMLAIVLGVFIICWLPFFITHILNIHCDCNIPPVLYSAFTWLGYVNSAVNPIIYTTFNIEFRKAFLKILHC

## CCCCOCCOP(=O)(OCCOCCCC)OCCOCCCC [TBEP, tris(butoxyethyl) phosphate]
Calf caudate [1]
  % 3H-Spiperone Bound in Buffer: 35.0% and 35.3% and 35.6% and 32.5% and 32.4% and 31.6% and 27.7%
  % 3H-Spiperone Bound in Serum: 23.0% and 26.2% and 27.8% and 29.1% and 27.2% and 26.1% and 24.3%
  % of 3H-Spiperone Bound, TBEP present: 31.9% and 32.2% and 31.5% and 33.8% and 33.5% and 32.8% and 31.8%
  % of 3H-Spiperone Bound, TBEP present, mean (X): 32.4%
  between sample variability (CV) in 3H-spiperone binding: reduced
β-Adrenergic Receptors
  125I-HYP Bound (CPM) in Buffer: 8513 CPM and 8226 CPM and 8729 CPM and 8510 CPM and 8630 CPM and 8412 CPM
Calf caudate [2]
  variability (CV) in the recovery of added haloperidol: reduced

## CCOP(=O)(OCC)OCC [TEP, triethyl phosphate]
Calf caudate [1]
  % 3H-Spiperone Bound in Buffer: 37.9% and 37.5% and 37.1% and 36.6% and 36.8% and 35.0%
  % 3H-Spiperone Bound in Serum: 27.8% and 28.6% and 29.1% and 30.1% and 30.6% and 29.8%
  % Change in Buffer: 0% and -1% and -2% and -3% and -7%
[3]; 50 μg/ml TEP
  3H-Desipramine Bound (CPM) in Buffer: 12093 CPM
  3H-Desipramine Bound (CPM) in Serum: 7740 CPM
  % Change in Buffer: -2%
  % Change in Serum: +10%
[3]; 100 μg/ml TEP
  3H-Desipramine Bound (CPM) in Buffer: 11748 CPM
  3H-Desipramine Bound (CPM) in Serum: 8276 CPM
  % Change in Buffer: -5%
  % Change in Serum: +18%
[3]; 500 μg/ml TEP
  3H-Desipramine Bound (CPM) in Buffer: 13024 CPM
  3H-Desipramine Bound (CPM) in Serum: 9204 CPM
  % Change in Buffer: +6%
  % Change in Serum: +31%
[3]; 750 μg/ml TEP
  3H-Desipramine Bound (CPM) in Buffer: 11507 CPM
  3H-Desipramine Bound (CPM) in Serum: 9198 CPM
  % Change in Buffer: -6%
  % Change in Serum: +30%
[3]; 1000 μg/ml TEP
  3H-Desipramine Bound (CPM) in Buffer: 11925 CPM
  3H-Desipramine Bound (CPM) in Serum: 9745 CPM
  % Change in Buffer: -3%
  % Change in Serum: +39%
[3]; 1250 μg/ml TEP
  3H-Desipramine Bound (CPM) in Buffer: 12362 CPM
  3H-Desipramine Bound (CPM) in Serum: 10016 CPM
  % Change in Buffer: 0%
  % Change in Serum: +43%
β-Adrenergic Receptors
  125I-HYP Bound (CPM) in Buffer: 8367 CPM and 7988 CPM and 7972 CPM and 7931 CPM and 7613 CPM
  125I-HYP Bound (CPM) in Serum: 3812 CPM and 4131 CPM and 6011 CPM and 5903 CPM and 5881 CPM
  % Change in Buffer: -1% and -5% and -6% and -10%
